This is an account of results in patent publication US9315531B2, “Titanocene-gold derivatives comprising thiolato ligands” (Research Foundation of the City University of New York, priority 2014, dated 2016).

Where only a bound is given, the exact number is not on record here.

The subject of one data set is Caki-1. In words: Cell viability assay (XTT), Caki-1. The format is cell-based, human. The note with it: 72 h incubation. The text has this: (§1) Cell Culture: Human renal cell carcinoma lines A498, Caki-1 and UO31, as well as the human prostate carcinoma cell lines DU145 and PC3 were newly obtained for these studies from the American Type Culture Collection (ATCC) (Manassas, Va., USA) and cultured in Roswell Park Memorial Institute (RPMI-1640) (Mediatech Inc., Manassas, Va.) media containing 10% fetal bovine serum (FBS, Life Technologies, Grand Island, N.Y.), 1% Minimum Essential Media (MEM) nonessential amino acids (NEAA, Mediatech) and 1% penicillin-streptomycin (PenStrep, Mediatech). HEK-293T cells were newly purchased from ATCC (Manassas, Va., USA) and maintained in Dulbecco's modified Eagle's medium (DMEM) (Mediatech) supplemented with 10% FBS, 1% NEAA and 1% PenStrep. Normal human renal epithelial cells (RPTC) were purchased from Lifeline Cell Technology (Lifeline Cell Technology, Frederick, Md., USA) and maintained in Lifeline's Renal Life Medium from Lifeline Cell Technology supplemented with 2.4 mM L-glutamine, 5 μg/mL rh insulin, 1.0 nM epinephrine, 10 nM triiodothyronine, 0.1 μg/mL hydrocortisone hemisuccinate, 10 ng/mL rhEGF, 0.50% FBS, 5 μg/mL transferrin PS. All cells were cultured at 37° C. and 5% CO2 in a humidified incubator.
The optical absorbance of each well in a 96-well plate was quantified using BioTek ELx808 absorbance microplate reader (BioTek Winooski, Vt.) set at 450 nm wavelength. The percentage of surviving cells was calculated from the ratio of absorbance of treated to untreated cells.

The test system of another data set is HEK-293T. In words: Cell viability assay (XTT), HEK-293T. Type of data set: cell-based. The note with it: 72 h incubation; non-tumorigenic human embryonic kidney cell line.
The subject of a further data set is RPTC. In words: Cell viability assay (XTT), RPTC. The format is cell-based. The note with it: 72 h incubation; human renal proximal tubular cells.
From the text: as §1
Cell Viability Assay: Cells were seeded at a concentration of 5000 cells/90 μl per well of either RPMI or DMEM without phenol red and without antibiotics, supplemented with 10% FBS and 2 mM L-glutamine into tissue culture grade 96-well flat bottom microplates (BioLite Microwell Plate, Fisher Scientific, Waltham, Mass., USA) and grown for 24 h at 37° C. in a humidified incubator. Afterwards, the intermediate dilutions of the compounds were added to the wells (10 μL) to obtain a final concentration ranging from 0.1 to 200 μM, and the cells were incubated for 24 h or 72 h. […] The optical absorbance of each well in a 96-well plate was quantified using BioTek ELx808 absorbance microplate reader (BioTek Winooski, Vt.) set at 450 nm wavelength. The percentage of surviving cells was calculated from the ratio of absorbance of treated to untreated cells.

A further data set has as its system plasmid pBR322 DNA. Description: Electrophoresis mobility shift assay. The format is binding. The note with it: metal/DNAbp ratios 0.25-2.0, 37° C., 20 h.
The nature of data set [1]: Stability in solution (DMSO-d6, CDCl3, DMSO/PBS). Type of data set: physicochemical. From the text: (§2) Both compound 2 and compound 3 were less acidic than titanocene dichloride and were soluble in DMSO/water, DMSO/PBS and DMSO/media (1:99) mixtures at micromolar concentrations. These compounds were unusually stable methyl-containing titanocene moieties that were stable as solids at room temperature, while exposed to air in CDCl3 solution for at least five days.

Data set [2] in a line: Solubility in DMSO/aqueous mixtures. The note with it: at micromolar concentrations. The format is physicochemical.
From the text: as §2

The subject of data set [3] is TrRx in human ovarian A2780 cancer cells. The note with it: 10 μM; cited from earlier work.
A further data set deals with T1, isolated TrRx (Homo sapiens, UniProt Q16881).
T1 sequence (Q16881 151-649 limits assumed): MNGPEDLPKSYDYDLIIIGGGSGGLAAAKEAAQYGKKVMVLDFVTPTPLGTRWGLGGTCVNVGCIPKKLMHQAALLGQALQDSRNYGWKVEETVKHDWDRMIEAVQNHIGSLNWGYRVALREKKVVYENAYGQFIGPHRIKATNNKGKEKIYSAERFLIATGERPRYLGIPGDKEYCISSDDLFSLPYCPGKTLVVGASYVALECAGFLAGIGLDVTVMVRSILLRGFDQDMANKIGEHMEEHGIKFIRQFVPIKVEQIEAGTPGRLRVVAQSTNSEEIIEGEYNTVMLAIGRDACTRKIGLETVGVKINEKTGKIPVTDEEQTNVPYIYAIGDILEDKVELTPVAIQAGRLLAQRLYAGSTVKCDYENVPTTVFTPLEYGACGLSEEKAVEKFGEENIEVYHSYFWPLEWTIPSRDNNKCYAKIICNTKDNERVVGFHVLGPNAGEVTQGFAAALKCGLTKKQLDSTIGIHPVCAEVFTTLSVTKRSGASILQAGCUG
The note with it: isolated enzyme; read-out: concentration inhibiting 50% of the enzymatic activity of isolated TrRx; cited from earlier work.

For the next data set, the system named is MAPKAPK3. Description: Protein kinase expression in Caki-1 whole cell lysates (Western blot), MAPKAPK3. Type of data set: cell-based, human. The note with it: Caki-1, by 12 hours post-treatment.
Data set [4] has as its system TrRx in human breast MCF-7 cancer cells. The note with it: 4 μM; cited from earlier work.

Method for HEK-293T: HEK-293T cells were newly purchased from ATCC (Manassas, Va., USA) and maintained in Dulbecco's modified Eagle's medium (DMEM) (Mediatech) supplemented with 10% FBS, 1% NEAA and 1% PenStrep. […] All cells were cultured at 37° C. and 5% CO2 in a humidified incubator.
Method for MAPKAPK3: The Caki-1 cells were then lysed and a Western blot analysis was performed with anti-MAPKAPK-3 antibody. Blots were probed with anti-β-Actin antibody as a control for protein loading.
Cell lysis and immunoblotting: Caki-1 cells were seeded into 10-cm dishes at a density of 2.2×10^6 and incubated for 24 hours. […] After microcentrifuging for 5 minutes at 4° C., pellets were treated with ice-cold lysis buffer with cell extraction buffer (BioSource, Camarillo, Calif.) containing 0.1% protease inhibitors and 1% phosphatase inhibitors cocktail (Fisher Scientific, Pittsburgh, Pa.) for 10 minutes, then sonicated for 10 seconds three times, and placed on ice. The lysed cells were centrifuged at 10,000×g at 4° C. for 10 minutes to remove the pellets representing the insoluble cell fraction.
The protein concentration was determined with BCA protein dye reagent (Pierce, Fisher Scientific Pittsburgh, Pa.). […]
Method for plasmid pBR322 DNA: Agarose gel electrophoresis assays were performed whereby decreased electrophoretic mobility of both forms were taken as evidence of metal-DNA binding.
Mobility Shift Assay: 10 μL aliquots of pBR322 plasmid DNA (20 μg/mL) in buffer (5 mM Tris/HCl, 50 mM NaClO4, pH=7.39) were incubated with different concentrations of the compounds (2, 3, 4, 5), and titanocene dichloride) (in the range 0.25 and 4.0 metal complex:DNA bp) at 37° C. for 20 h in the dark. Samples of free DNA and cisplatin-DNA were prepared as controls. After the incubation period, the samples were loaded onto the 1% agarose gel. The samples were separated by electrophoresis for 1.5 h at 80 V in Tris-acetate/EDTA buffer (TAE). Afterwards, the gel was stained for 30 min with a solution of GelRed nucleic acid stain.
Method for thioredoxin reductase: After 5, 12 or 24 hours of treatment incubation cells were washed three times in PBS, and lysed by douncing using scrapers and sheer force though syringe with a 34 gauge needle in assay buffer (Abeam Thioredoxin Reductase Assay kit, ab83463) added to 1 mM protease inhibitor cocktail (Abeam, ab65621). The lysates were centrifuged at 10,000×g for 15 minutes at 4° C. to isolate insoluble material. The total protein concentrations of soluble lysates were measured using the BCA Protein Assay (Life Technologies). The soluble lysates were incubated for 20 minutes in assay buffer with a proprietary thioredoxin reductase specific inhibitor before adding a specific substrate, DTNB (5, 5′-dithiobis(2-nitrobenzoic) acid), and measuring activity at 1 minute intervals for 30 minutes using the BioTek fluorescence microplate reader (BioTek U.S., Winooski, Vt.) set at =412 nm. Lysates were tested in duplicate. TrxR activity was calculated based on the linear amount of TNB produced per minute per mg of total protein and corrected for background activity from enzymes other than TrxR in the lysates.

On to `[Cl-].[Cl-].[Ti+4].c1cc[cH-]c1.c1cc[cH-]c1` [[(π-C5H5)2TiCl2], reference compound], for which the IC50 in the data set on Caki-1 and in the data set with HEK-293T was over 200 µM each time.
For the compound [Au(Hmba)(MPPF)] [Precursor 5], the IC50 with RPTC came to 3.78 ± 0.13 µM; in the data set on Caki-1 it was 3.6 ± 0.342 µM; with HEK-293T it was 3 ± 0.07 µM. The “effect on electrophoretic mobility of plasmid DNA forms” value (“effect on electrophoretic mobility” for short) in the data set with plasmid pBR322 DNA is listed as “did not affect the mobility”.
`COc1ccc(C[C]2([Ti+2][C]3(Cc4ccc(OC)cc4)C=CC=C3)C=CC=C2)cc1.[Cl-].[Cl-]` [Titanocene Y, reference compound]: the figures for the IC50 in the data set on Caki-1 and in the data set on HEK-293T were 29.4 ± 4.18 µM and over 200 µM, respectively.
Consider “[(η-C5H5)2TiMe(μ-mba)Au(MPPF)] [Compound 3]”, for which the figures for the IC50 in the data set with RPTC, in the data set with Caki-1 and in the data set on HEK-293T were 3.76 ± 0.21 µM, 4.11 ± 0.64 µM and 3.09 ± 0.003 µM, respectively. Besides, the “effect on electrophoretic mobility” value with plasmid pBR322 DNA is “did not affect the mobility”. Besides, the “half-life in DMSO-d6” value in data set [1] (DMSO-d6) is on record as “thirty-two”. Also, the “half-life fold larger than corresponding compound 6 / compound 7” value in data set [1] (DMSO-d6, same solvent) is on record as “sixty-four”. For the same compound, in data set [1] (micromolar concentration in 1:99 DMSO/PBS, 23 h, physiological pH), the “UV-vis spectra over time” value is recorded as “did not change over time”. In addition, the “solubility in DMSO/water, DMSO/PBS and DMSO/media (1:99) mixtures” value in [2] is on record as “soluble”.
With `N.N.[Cl][Pt][Cl]` [Cisplatin, reference compound], the “effect on electrophoretic mobility” value in the data set with plasmid pBR322 DNA is “decreased mobility of the CCC form and increased mobility of the OC form”. In addition, the IC50 in the data set on Caki-1 came out at 29 ± 4.11 µM; in the data set with HEK-293T, 3.27 ± 0.13 µM.
`CC(=O)OC[C@H]1O[C@@H]([S-])[C@H](OC(C)=O)[C@@H](OC(C)=O)[C@@H]1OC(C)=O.CCP(CC)CC.[Au+]` [Auranofin]: the “inhibition of thioredoxin reductase activity” value with thioredoxin reductase (Caki-1 cells, 5 μM, five hour incubation) was found to be 74.1%. The IC50 on thioredoxin reductase (read-out: IC50 thioredoxin reductase in Caki-1 cells, after twelve hours) was 0.61 µM; at isolated TrRx, 0.02 µM; in the data set with Caki-1, 3.08 ± 0.13 µM. Also, in data set [3], the “inhibition of total TrRx activity in A2780 cells” value is reported as 30%. For the same compound, the “expression of MAPKAPK3” value with MAPKAPK3 was “failed to down-regulate”. Also, in data set [4], the “inhibition of total TrRx activity in MCF-7 cells” value is reported as 18%.
